In patent US20260256721A1, “ANTI-COCCIDIAL COMPOSITION COMPRISING QUINIC ACID AND USES THEREOF” (priority 2023, published 2026):
Read-outs that look alike come from different tables or passages of the source.

Tests used:
[1] = tested on: Eimeria maxima protozoa (sporozoites); experiment: Direct killing effect against Eimeria maxima protozoa (live sporozoites counted by microscopy); assay type: cell-based; conditions: 3 h, read-out: Mortality rate of Eimeria maxima orozites [Killed sporozoites %]
Text: (§1) A certain amount of oocysts (eggs) of Eimeria tenella and Eimeria maxima protozoa (College of Veterinary Medicine, Gyeongsang National University, Korea) were put in a tube containing glass beads and crushed, and then, in order to remove crushed oocyst cell walls and other debris, internal sporocysts were purified using Percoll density gradient, and washed with a PBS solution. For excystation of internal sporozoites, reagents comprising sodium taurocholic acid (sigma aldirich, USA) and trypsin (Ginco, USA), respectively, were treated to Eimeria tenella and Eimeria maxima sporangia and they were incubated, and then washed with PBS (Phosphate-Buffered Saline) solution once and the protozoa were obtained.
(§2) Then, the mortality rate (%) was measured when each substance was treated compared to a negative control group to which PBS was treated, and the result is shown in Table 3 below.

[2] = tested on: Eimeria tenella protozoa (sporozoites); experiment: microbe, parasite or virus in culture; assay type: cell-based
Text: as §1
Quinic acid (Sigma, Cas No. 77-95-2) at concentrations ranging from 0 to 1000 ppm was reacted with Eimeria tenella oocysts at 40° C. for 3 hours. Following this, only live protozoa (sporozoites) were counted by microscopy. The mortality rate (%) of the protozoa was measured for each substance treatment compared to the negative control group treated with PBS. The results, as shown in FIG. 1 and Table 2, confirmed the anti-coccidial efficacy of quinic acid depending on the concentration.
as §2
After reacting 0.1% (v/v) DMSO, quinic acid, chlorogenic acid, theogallin, and cryptochlorogenic acid, respectively, with Eimeria tenella protozoa at a concentration of 10 ppm at 40° C. for 3 hours, only living protozoa (sporozoites) were counted by microscopy. Then, the mortality rate (%) was measured when each substance was treated compared to a negative control group to which PBS was treated, and the result is shown in Table 5 below.
The Eimeria tenella protozoa were killed by treating the quinic acid or sugarcane extract up to 1000 ppm concentration at maximum, and the minimal treatment concentration showing a mortality rate of 50% or more against Eimeria tenella protozoa was shown in Table 6 below.

[3] = Eimeria tenella, 3 h, read-out: Mortality rate of Eimeria tenella orozites [Killed sporozoites %]
[4] = Eimeria tenella, 3 h, read-out: Mortality rate of Eimeria tenella sporozites [Killed sporozoites %]
[5] = Eimeria tenella, each substance treated up to 1000 ppm, minimum concentration with mortality rate of 50% or higher, x not defined (Table 4)
[6] = Eimeria tenella, 3 h, read-out: The mortality rate

Row | Structure (SMILES) | mortality at 10 ppm [1] [%] | mortality at 10 ppm [2, 3] [%] | mortality at 10 ppm [2, 4] [%] | Minimum Dose for killed 50% sporozoite [2, 5] [ppm] | also measured
1 | O=C(O)/C=C/c1ccc(O)c(O)c1 [Caffeic acid, caffeic acid, reference compound] | 0 | 0 | – | – | –
2 | O=C(/C=C/c1ccc(O)c(O)c1)O[C@@H]1C[C@](O)(C(=O)O)C[C@@H](O)[C@H]1O [Chlorogenic acid, chlorogenic acid, reference compound] | 0 | 0 | 0 | 500 | –
3 | COc1cc(/C=C/C(=O)O)ccc1O [Ferulic acid, ferulic acid, reference compound] | 0 | 0 | – | – | –
4 | O=C(O)[C@]1(O)C[C@@H](O)[C@@H](O)[C@H](O)C1 [Quinic acid, quinic acid] | 34 | 32 | 32 | 50 | mortality at 0.78 ppm [2, 6]: 7.4%; mortality at 1.56 ppm [2, 6]: 14.9%; mortality at 3.125 ppm [2, 6]: 20.2%; mortality at 6.25 ppm [2, 6]: 25.5%; mortality at 12.5 ppm [2, 6]: 31.9%; mortality at 25 ppm [2, 6]: 35.1%; mortality at 50 ppm [2, 6]: 55.3%; mortality at 100 ppm [2, 6]: 59.6%; mortality at 250 ppm [2, 6]: 91.5%; mortality at 500 ppm [2, 6]: 97.9%; mortality at 1000 ppm [2, 6]: 100%; Minimum Dose for killed 50% sporozoite ([2]; Eimeria tenella, treated up to 1000 ppm at maximum, minimal concentration with mortality rate of 50% or more (Table 6)): 50 ppm
5 | O=C(/C=C/c1ccc(O)c(O)c1)O[C@H]1[C@H](O)C[C@](O)(C(=O)O)C[C@H]1O [Cryptochlorogenic acid, cryptochlorogenic acid, reference compound] | – | – | – | – | Mortality rate of Eimeria tenella sporozites [Killed sporozoites %] ([2]; 10 ppm, 40° C., 3 hours, compared to PBS negative control (Table 5)): 0%
6 | O=C(O)/C=C/c1cccc(O)c1 [m-coumaric acid, reference compound] | 6.4 | – | – | 500 | mortality at 10 ppm ([2]; Eimeria tenella, 10 ppm, 40° C., 3 hours, compared to PBS negative control (Table 3), read-out: Mortality rate of Eimeria tenella orozites [Killed sporozoites %]): 10.7%
